In brackets after ≈: the same amount, converted by molar mass. Activity calls are given as the source filed them. The calls are words filed in the database; no cut-off is given here.
How the values were obtained:
[1] = Antioxidant activity assessed as DPPH radical scavenging activity at 250 to 1000 ug/ml after 30 mins by UV-Vis spectrophotometric analysis; assay type: functional; settings: dose microg/ml 250-1000, time 30.0 min
[2] = tested on: Mycobacterium tuberculosis; test: Antimycobacterial activity against Mycobacterium tuberculosis H37Rv assessed as bacterial growth inhibition at MIC of 144 uM; assay type: functional; parameters: scale not given: the % may be the effect or the level left
Escherichia coli [3] = test: Antimicrobial activity against Escherichia coli ATCC 25922 assessed as zone of inhibition at 4 mg/ml incubated for 24 hrs by agar well diffusion method; assay type: functional; settings: read-out: IZ
Pseudomonas aeruginosa [4] = test: Antimicrobial activity against Pseudomonas aeruginosa ATCC 19429 assessed as zone of inhibition at 4 mg/ml incubated for 24 hrs by agar well diffusion method; assay type: functional; settings: for zone of inhibition at 4000 µg/mL: read-out: IZ
Staphylococcus aureus [5] = test: Antimicrobial activity against Staphylococcus aureus ATCC 29737 assessed as zone of inhibition at 4 mg/ml incubated for 24 hrs by agar well diffusion method; assay type: functional; settings: read-out: IZ
Salmonella typhi [6] = test: Antimicrobial activity against Salmonella typhi ATCC 23564 assessed as zone of inhibition at 4 mg/ml incubated for 24 hrs by agar well diffusion method; assay type: functional, Salmonella enterica subsp. enterica serovar Typhi; settings: Salmonella enterica, read-out: IZ
Escherichia coli [7] = test: Antimicrobial activity against Escherichia coli ATCC 25922 incubated for 24 hrs by broth microdilution method; assay type: functional
Pseudomonas aeruginosa [8] = test: Antimicrobial activity against Pseudomonas aeruginosa ATCC 19429 incubated for 24 hrs by broth microdilution method; assay type: functional
Staphylococcus aureus [9] = test: Antimicrobial activity against Staphylococcus aureus ATCC 29737 incubated for 24 hrs by broth microdilution method; assay type: functional
Salmonella typhi [10] = test: Antimicrobial activity against Salmonella typhi ATCC 23564 incubated for 24 hrs by broth microdilution method; assay type: functional, Salmonella enterica subsp. enterica serovar Typhi; settings: Salmonella enterica
MCF7 [11] = test: Anticancer activity against human MCF7 cells assessed as inhibition of cell growth at 80 ug/ml by sulforhodamine B assay; assay type: functional, cell-based; settings: dose 80.0 µg/ml
HeLa = test: Anticancer activity against human HeLa cells assessed as inhibition of cell growth at 40 to 80 ug/ml by sulforhodamine B assay; assay type: functional, cell-based; settings: dose microg/ml 40-80
[12] = tested on: Mycobacterium tuberculosis; test: Antimycobacterial activity against Mycobacterium tuberculosis H37Rv assessed as bacterial growth inhibition; assay type: functional
[13] = tested on: Mycobacterium tuberculosis; test: Antimycobacterial activity against Mycobacterium tuberculosis H37Rv assessed as bacterial growth inhibition at MIC of 31 uM; assay type: functional; parameters: scale not given: the % may be the effect or the level left
[14] = tested on: Mycobacterium tuberculosis; test: Antimycobacterial activity against Mycobacterium tuberculosis H37Rv assessed as bacterial growth inhibition at MIC of 164 uM; assay type: functional; parameters: scale not given: the % may be the effect or the level left
[15] = tested on: Mycobacterium tuberculosis; test: Antimycobacterial activity against Mycobacterium tuberculosis H37Rv assessed as bacterial growth inhibition at the MIC of 153 uM; assay type: functional; parameters: scale not given: the % may be the effect or the level left
[16] = tested on: Mycobacterium tuberculosis; test: Antimycobacterial activity against Mycobacterium tuberculosis H37Rv assessed as bacterial growth inhibition at MIC of 614 uM; assay type: functional; parameters: scale not given: the % may be the effect or the level left
[17] = tested on: Mycobacterium tuberculosis; test: Antimycobacterial activity against Mycobacterium tuberculosis H37Rv assessed as bacterial growth inhibition at MIC of 15 uM; assay type: functional; parameters: scale not given: the % may be the effect or the level left
[18] = tested on: Mycobacterium tuberculosis; test: Antimycobacterial activity against Mycobacterium tuberculosis H37Rv assessed as bacterial growth inhibition at the MIC of 266 uM; assay type: functional; parameters: scale not given: the % may be the effect or the level left
[19] = tested on: Mycobacterium tuberculosis; test: Antimycobacterial activity against Mycobacterium tuberculosis H37Rv assessed as bacterial growth inhibition at MIC of 1343 uM; assay type: functional; parameters: scale not given: the % may be the effect or the level left
[20] = tested on: Mycobacterium tuberculosis; test: Antimycobacterial activity against Mycobacterium tuberculosis H37Rv assessed as bacterial growth inhibition at MIC of 237 uM; assay type: functional; parameters: scale not given: the % may be the effect or the level left
[21] = tested on: Mycobacterium tuberculosis; test: Antimycobacterial activity against Mycobacterium tuberculosis H37Rv assessed as bacterial growth inhibition at MIC of 1.4 uM; assay type: functional; parameters: scale not given: the % may be the effect or the level left
[22] = tested on: Mycobacterium tuberculosis; test: Antimycobacterial activity against Mycobacterium tuberculosis H37Rv assessed as bacterial growth inhibition at MIC of 294 uM; assay type: functional; parameters: scale not given: the % may be the effect or the level left
[23] = tested on: Mycobacterium tuberculosis; test: Antimycobacterial activity against Mycobacterium tuberculosis H37Rv assessed as bacterial growth inhibition at MIC of 566 uM; assay type: functional; parameters: scale not given: the % may be the effect or the level left
[24] = tested on: Mycobacterium tuberculosis; test: Antimycobacterial activity against Mycobacterium tuberculosis H37Rv assessed as bacterial growth inhibition at MIC of 34 uM; assay type: functional; parameters: scale not given: the % may be the effect or the level left
MCF7 [25] = test: Anticancer activity against human MCF7 cells assessed as inhibition of cell growth at 20 to 80 ug/ml by sulforhodamine B assay; assay type: functional, cell-based; settings: dose microg/ml 20-80

Structure (SMILES)	Activity [1]	zone of inhibition at 4000 µg/mL (Escherichia coli [3]) [mm]	zone of inhibition at 4000 µg/mL (Pseudomonas aeruginosa [4]) [mm]	zone of inhibition at 4000 µg/mL (Staphylococcus aureus [5]) [mm]	zone of inhibition at 4000 µg/mL (Salmonella typhi [6]) [mm]	MIC (Escherichia coli [7]) [µM]	MIC (Pseudomonas aeruginosa [8]) [µM]	MIC (Staphylococcus aureus [9]) [µM]	MIC (Salmonella typhi [10]) [µM]	MIC [12] [µM]	other results
COc1cccc(C2=CC(c3ccc(Br)cc3)N(C(=O)c3ccncc3)N2)c1 (configuration not stated)	Active	16.4	14.3	26.4	22.4	57 (≈ 24.9 µg/mL)	229 (≈ 99.9 µg/mL)	14 (≈ 6.11 µg/mL)	114 (≈ 49.7 µg/mL)	144 (≈ 62.8 µg/mL)	Activity [2]: 98%; Activity (MCF7 [11]): Active; Activity (HeLa): Active
COc1cccc(C2=CC(c3ccc(Cl)cc3)N(C(=O)c3ccncc3)N2)c1 (configuration not stated)	Active	12.3	12.3	27.2		127 (≈ 49.8 µg/mL)	63 (≈ 24.7 µg/mL)	31 (≈ 12.1 µg/mL)	511 (≈ 200 µg/mL)	31 (≈ 12.1 µg/mL)	Activity [13]: 99%
CC1(C)S[C@@H]2[C@H](NC(=O)[C@H](N)c3ccccc3)C(=O)N2[C@H]1C(=O)O [AMPICILLIN]		24.4		27.3		8.9 (≈ 3.11 µg/mL)		8.9 (≈ 3.11 µg/mL)			
O=C(c1ccncc1)N1NC(c2ccc(Cl)cc2)=CC1c1ccc(F)cc1 (configuration not stated)	Active	15	12.3	22.3		32 (≈ 12.2 µg/mL)	131 (≈ 49.8 µg/mL)	131 (≈ 49.8 µg/mL)	263 (≈ 99.9 µg/mL)	164 (≈ 62.3 µg/mL)	Activity [14]: 96%
O=C(c1ccncc1)N1NC(c2ccc(Br)cc2)=CC1c1ccccc1 (configuration not stated)	Active		10.3			123 (≈ 50 µg/mL)	123 (≈ 50 µg/mL)	492 (≈ 200 µg/mL)	492 (≈ 200 µg/mL)	153 (≈ 62.2 µg/mL)	Activity [15]: 97%
O=C(c1ccncc1)N1NC(c2ccc(Cl)cc2)=CC1c1ccc([N+](=O)[O-])cc1 (configuration not stated)	Active	17.1	14.2	23.4	18.3	122 (≈ 49.6 µg/mL)	122 (≈ 49.6 µg/mL)	245 (≈ 99.7 µg/mL)	245 (≈ 99.7 µg/mL)	614 (≈ 250 µg/mL)	Activity [16]: 95%
CN[C@@H]1[C@H](O[C@H]2[C@H](O[C@H]3[C@H](O)[C@@H](O)[C@H](N=C(N)N)[C@@H](O)[C@@H]3N=C(N)N)O[C@@H](C)[C@]2(O)C=O)O[C@@H](CO)[C@H](O)[C@H]1O [STREPTOMYCIN]		22.2	25	30.6	29.1	5.3 (≈ 3.08 µg/mL)	5.3 (≈ 3.08 µg/mL)	5.3 (≈ 3.08 µg/mL)	5.3 (≈ 3.08 µg/mL)		
CC[C@@H](CO)NCCN[C@@H](CC)CO [ETHAMBUTOL]										15 (≈ 3.06 µg/mL)	Activity [17]: 99%
Cc1ccc(C2C=C(c3ccc(Cl)cc3)NN2C(=O)c2ccncc2)cc1 (configuration not stated)	Active	12.6			21.4	533 (≈ 200 µg/mL)	133 (≈ 50 µg/mL)	66 (≈ 24.8 µg/mL)	533 (≈ 200 µg/mL)	266 (≈ 100 µg/mL)	Activity [18]: 98%
O=C(c1ccncc1)N1NC(c2ccccc2)=CC1c1cccc([N+](=O)[O-])c1 (configuration not stated)	Active	10.2	12.3	8.4	15.3	268 (≈ 99.8 µg/mL)	67 (≈ 24.9 µg/mL)	537 (≈ 200 µg/mL)	537 (≈ 200 µg/mL)	1340 (≈ 500 µg/mL)	Activity [19]: 95%
Cc1ccc(C2=CC(c3ccc(Br)cc3)N(C(=O)c3ccncc3)N2)cc1 (configuration not stated)	Active		20.4	25.4		118 (≈ 49.6 µg/mL)	14 (≈ 5.88 µg/mL)	14 (≈ 5.88 µg/mL)	237 (≈ 99.6 µg/mL)	237 (≈ 99.6 µg/mL)	Activity [20]: 97%
NNC(=O)c1ccncc1 [ISONIAZID]										1.4 (≈ 0.192 µg/mL)	Activity [21]: 99%
O=C(c1ccncc1)N1NC(c2ccc(F)cc2)=CC1c1ccc(Br)cc1 (configuration not stated)	Active		12.4	17.8	22.3	58 (≈ 24.6 µg/mL)	29 (≈ 12.3 µg/mL)	235 (≈ 99.7 µg/mL)	117 (≈ 49.6 µg/mL)	294 (≈ 125 µg/mL)	Activity [22]: 96%
O=C(c1ccncc1)N1NC(c2ccc(Cl)cc2Cl)=CC1c1cccc([N+](=O)[O-])c1 (configuration not stated)	Active	12.4		23.8	21	113 (≈ 49.9 µg/mL)	453 (≈ 200 µg/mL)	226 (≈ 99.7 µg/mL)	453 (≈ 200 µg/mL)	566 (≈ 250 µg/mL)	Activity [23]: 95%
Cc1ccc(C2=CC(c3ccc(F)cc3)N(C(=O)c3ccncc3)N2)cc1 (configuration not stated)	Active			27		139 (≈ 50 µg/mL)	139 (≈ 50 µg/mL)	17 (≈ 6.11 µg/mL)	278 (≈ 99.9 µg/mL)	34 (≈ 12.2 µg/mL)	Activity [24]: 99%; inhibition zone (IZ) (Pseudomonas aeruginosa [4]): Active; Activity (MCF7 [25]): Active
